As a reminder, the inhibition is the percentage by which the read-out fell short of the control.

Assay [1] deals with T1, Type I 5α-Reductase from Human Scalp (Homo sapiens, UniProt P18405).
T1 construct: Scalp punch biopsies from graft recipient sites were obtained from human hair transplant procedures; from tissue; host or cells: human scalp punch biopsies (hair transplant graft recipient sites), homogenate, 100,000×g pellet
T1 sequence (P18405 1-259): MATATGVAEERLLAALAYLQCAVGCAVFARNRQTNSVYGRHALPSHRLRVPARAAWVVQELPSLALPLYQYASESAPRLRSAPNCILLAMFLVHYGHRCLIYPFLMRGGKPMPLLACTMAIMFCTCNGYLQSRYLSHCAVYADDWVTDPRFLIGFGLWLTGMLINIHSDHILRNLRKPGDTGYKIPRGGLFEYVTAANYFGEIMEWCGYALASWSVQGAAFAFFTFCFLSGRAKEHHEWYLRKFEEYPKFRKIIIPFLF
As to the kind of experiment: Human Type I 5α-reductase assay (conversion of [3H]-testosterone to 5α-reduced metabolites). The class given is biochemical. Conditions: pH 7.5, 0.3 μM; 50 nM [3H]-testosterone, pH 7.5, 25°, 180 min; compared to control reaction mixtures; read-out: percent inhibition of Type I AR.

Assay [2] concerns the target T2, Type II 5α-Reductase from Human Prostate (Homo sapiens, UniProt P31213).
T2 construct: The same procedure as above was used for preparations using tissue from prostate surgery; from tissue; host or cells: human prostate tissue from surgery, homogenate, 100,000×g pellet
T2 sequence (P31213 1-254): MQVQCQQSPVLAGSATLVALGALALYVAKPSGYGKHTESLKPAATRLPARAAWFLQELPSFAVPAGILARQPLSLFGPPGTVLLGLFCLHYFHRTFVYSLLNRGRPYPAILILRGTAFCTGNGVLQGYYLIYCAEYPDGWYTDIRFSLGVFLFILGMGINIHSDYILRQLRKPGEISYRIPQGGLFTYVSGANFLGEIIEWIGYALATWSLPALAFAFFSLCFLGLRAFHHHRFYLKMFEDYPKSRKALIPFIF
As to the kind of experiment: Human Type II 5α-reductase assay (conversion of [3H]-testosterone to 5α-reduced metabolites). Conditions: pH 5.5, 0.3 μM; sodium acetate pH 5.5, 25°, 30 min; compared to control reaction mixtures; read-out: percent inhibition of Type II AR. The assay is classed as biochemical.

With `CN1C(=O)CC[C@]2(C)c3ccc(-c4ccc(S(N)(=O)=O)cc4)cc3CC[C@@H]12` [Example 220, (+)-(4aR)-(10bR)-4-methyl-8-(4-sulfonamidophenyl)-10b-methyl-1,2,3,4,4a,5,6,10b-octahydrobenzo[f]quinolin-3-one], the inhibition at 0.3 µM in assay [1] came to 67%; in assay [2] it was 26%.
On the same counts, the results for `CN1C(=O)CC[C@]2(C)c3ccc(-c4ccc(C(=O)CCCCl)cc4)cc3CC[C@@H]12` [Example 221, (+)-(4aR)-(10bR)-4-methyl-8-[4-(4-chlorobutyryl)phenyl]-10b-methyl-1,2,3,4,4a,5,6,10b-octahydrobenzo[f]quinolin-3-one] are 95% and 26%.
Turning to `CN1C(=O)CC[C@]2(C)c3ccc(-c4ccc5c(c4)C(=O)C(=O)N5)cc3CC[C@@H]12` [Example 223, (+)-(4aR)-(10bR)-4-methyl-8-(2,3-dioxo-5-indolinyl)-10b-methyl-1,2,3,4,4a,5,6,10b-octahydrobenzo[f]quinolin-3-one], the inhibition at 0.3 µM in assay [1] came to 36%; in assay [2], 24%.
On the same counts, the results for `CN(C)CCN1C(=O)c2cccc3c(-c4ccc5c(c4)CC[C@H]4N(C)C(=O)CC[C@]54C)ccc(c23)C1=O` [Example 224, (+)-(4aR)-(10bR)-4-methyl-8-(2-(2-dimethylaminoethyl)-1H-benzo<de>isoquinolin-6-yl-1,3-(2H)dione)-10b-methyl-1,2,3,4,4a,5,6,10b-octahydrobenzo[f]quinolin-3-one] are 71% and 20%.
On the same counts, the results for `CCCN(CCC)[C@@H]1Cc2cc(-c3ccc4c(c3)CC[C@H]3N(C)C(=O)CC[C@]43C)cc3c2[C@@H](C1)CN3C(=O)c1ccccc1` [Example 225, (+)-(4aR)-(10bR)-4-methyl-8-(2aR,4S-1-benzoyl-4-dipropylamino-2,2a,3,4-tetrahydrobenz[cd]-1H-indol-7-yl)-10b-methyl-1,2,3,4,4a,5,6,10b-octahydrobenzo[f]quinolin-3-one] are 47% and 32%.
On to `CN1C(=O)CC[C@]2(C)c3ccc(-c4cc5c6c(c4)N(C(=O)c4ccccc4)C[C@@H]6C[C@H](N)C5)cc3CC[C@@H]12` [Example 226, (+)-(4aR)-(10bR)-4-methyl-8-(2aR,4S-1-benzoyl-4-amino-2,2a,3,4-tetrahydrobenz[cd]-1H-indol-7-yl)-10b-methyl-1,2,3,4,4a,5,6,10b-octahydrobenzo[f]quinolin-3-one], for which the inhibition at 0.3 µM worked out at 16% in assay [1] and 8% in assay [2].
For `CN1C(=O)CC[C@]2(C)c3ccc(-c4cc(F)cc(F)c4)cc3CC[C@@H]12` [Example 227, (+)-(4aR)-(10bR)-4-methyl-8-(3,5-difluorophenyl)-10b-methyl-1,2,3,4,4a,5,6,10b-octahydrobenzo[f]quinolin-3-one], in that order: 97% and 25%.
On the same counts, the results for `CN1C(=O)CC[C@]2(C)c3ccc(-c4c(F)cccc4F)cc3CC[C@@H]12` [Example 228, (+)-(4aR)-(10bR)-4-methyl-8-(2,6-difluorophenyl)-10b-methyl-1,2,3,4,4a,5,6,10b-octahydrobenzo[f]quinolin-3-one] are 77% and 32%.
For `CN1C(=O)CC[C@]2(C)c3ccc(-c4cc(F)ccc4F)cc3CC[C@@H]12` [Example 229, (+)-(4aR)-(10bR)-4-methyl-8-(2,5-difluorophenyl)-10b-methyl-1,2,3,4,4a,5,6,10b-octahydrobenzo[f]quinolin-3-one], in that order: 97% and 11%.
Regarding `CN1C(=O)CC[C@]2(C)c3ccc(-c4c(F)cc(F)cc4F)cc3CC[C@@H]12` [Example 230, (+)-(4aR)-(10bR)-4-methyl-8-(2,4,6-trifluorophenyl)-10b-methyl-1,2,3,4,4a,5,6,10b-octahydrobenzo[f]quinolin-3-one], the inhibition at 0.3 µM in assay [1] stood at 86%; in assay [2], 29%.
For `CN1C(=O)CC[C@]2(C)c3ccc(-c4ccc(F)cc4F)cc3CC[C@@H]12` [Example 231, (+)-(4aR)-(10bR)-4-methyl-8-(2,4-difluorophenyl)-10b-methyl-1,2,3,4,4a,5,6,10b-octahydrobenzo[f]quinolin-3-one], the inhibition at 0.3 µM in assay [1] came out at 80%; in assay [2], 21%.
For `CN1C(=O)CC[C@]2(C)c3ccc(-c4ccc(F)c(F)c4F)cc3CC[C@@H]12` [Example 232, (+)-(4aR)-(10bR)-4-methyl-8-(2,3,4-trifluorophenyl)-10b-methyl-1,2,3,4,4a,5,6,10b-octahydrobenzo[f]quinolin-3-one], the inhibition at 0.3 µM in assay [1] turned out to be 94%; in assay [2], 27%.
On the same counts, the results for `CN1C(=O)CC[C@]2(C)c3ccc(-c4ccc(SCc5ccc([N+](=O)[O-])cc5)cc4)cc3CC[C@@H]12` [Example 233, (+)-(4aR)-(10bR)-4-methyl-8-(4-[4-nitrobenzyl]thiophenyl)-10b-methyl-1,2,3,4,4a,5,6,10b-octahydrobenzo[f]quinolin-3-one] are 95% and 38%.
As to `CN1C(=O)CC[C@]2(C)c3ccc(-c4ccc5c6c(cccc46)C(=O)N(CCN4CCOCC4)C5=O)cc3CC[C@@H]12` [Example 234, (+)-(4aR)-(10bR)-4-methyl-8-(2-(2-[1-morpholino]ethyl)-1H-benzo<de>isoquinolin-6-yl-1,3-(2H)dione)-10b-methyl-1,2,3,4,4a,5,6,10b-octahydrobenzo[f]quinolin-3-one], the inhibition at 0.3 µM in assay [1] amounted to 83%; in assay [2] it was 30%.
`CN1C(=O)CC[C@]2(C)c3ccc(-c4ccncc4)cc3CC[C@@H]12` [Example 235, (+)-(4aR)-(10bR)-4-methyl-8-(4-pyridinyl)-10b-methyl-1,2,3,4,4a,5,6,10b-octahydrobenzo[f]quinolin-3-one]: the results for the inhibition at 0.3 µM in assay [1] and in assay [2] were 28% and 12%, respectively.
For `Cc1ccc(S(=O)(=O)n2ccc3cc(-c4ccc5c(c4)CC[C@H]4N(C)C(=O)CC[C@]54C)ccc32)cc1` [Example 236, (+)-(4aR)-(10bR)-4-methyl-8-(1-p-toluenesulfonylindol-5-yl)-10b-methyl-1,2,3,4,4a,5,6,10b-octahydrobenzo[f]quinolin-3-one], the values for the inhibition at 0.3 µM in assay [1] and in assay [2] were 84% and 67%, respectively.
As for `CC(=O)N1CCc2cc(-c3ccc4c(c3)CC[C@H]3N(C)C(=O)CC[C@]43C)cc([N+](=O)[O-])c21` [Example 237, (+)-(4aR)-(10bR)-4-methyl-8-(1-acetyl-7-nitroindolin-5-yl)-10b-methyl-1,2,3,4,4a,5,6,10b-octahydrobenzo[f]quinolin-3-one], the inhibition at 0.3 µM was determined as 33% in assay [1] and 13% in assay [2].
For `CC(=O)N1CCc2cc(-c3ccc4c(c3)CC[C@H]3N(C)C(=O)CC[C@]43C)ccc21` [Example 238, (+)-(4aR)-(10bR)-4-methyl-8-(1-acetylindolin-5-yl)-10b-methyl-1,2,3,4,4a,5,6,10b-octahydrobenzo[f]quinolin-3-one], in that order: 72% and 29%.
For `CN1C(=O)CC[C@]2(C)c3ccc(-c4cccc5cccnc45)cc3CC[C@@H]12` [Example 239, (+)-(4aR)-(10bR)-4-methyl-8-(8-quinolinyl)-10b-methyl-1,2,3,4,4a,5,6,10b-octahydrobenzo[f]quinolin-3-one], the inhibition at 0.3 µM in assay [1] came out at 42%; in assay [2] it was 27%.
On the same counts, the results for `CN1C(=O)CC[C@]2(C)c3ccc(-c4cccc5ncccc45)cc3CC[C@@H]12` [Example 240, (+)-(4aR)-(10bR)-4-methyl-8-(5-quinolinyl)-10b-methyl-1,2,3,4,4a,5,6,10b-octahydrobenzo[f]quinolin-3-one] are 55% and 17%.
With `CN1C(=O)CC[C@]2(C)c3ccc(-c4cccc5cnccc45)cc3CC[C@@H]12` [Example 241, (+)-(4aR)-(10bR)-4-methyl-8-(5-isoquinolinyl)-10b-methyl-1,2,3,4,4a,5,6,10b-octahydrobenzo[f]quinolin-3-one], the inhibition at 0.3 µM in assay [1] stood at 65%; in assay [2], 33%.
For `CN1C(=O)CC[C@]2(C)c3ccc(-c4ccccn4)cc3CC[C@@H]12` [Example 242, (+)-(4aR)-(10bR)-4-methyl-8-(2-pyridinyl)-10b-methyl-1,2,3,4,4a,5,6,10b-octahydrobenzo[f]quinolin-3-one], in that order: 5% and 24%.
As for `CN1C(=O)CC[C@]2(C)c3ccc(-c4cc(F)c([N+](=O)[O-])cc4F)cc3CC[C@@H]12` [Example 243, (+)-(4aR)-(10bR)-4-methyl-8-(2,5-difluoro-4-nitrophenyl)-10b-methyl-1,2,3,4,4a,5,6,10b-octahydrobenzo[f]quinolin-3-one], the inhibition at 0.3 µM in assay [1] is 88%; in assay [2] it was 54%.

(Values after patent publication US5622962A, “5α-reductase inhibitors” (priority 1995, dated 1997).)
